Patent publication US9518046B2 (Calitor Sciences, LLC, priority 2015, dated 2016)
pIC50: −log10 of the molar value.

Tests used:
[1] = Compound stability in human liver microsomes; type: in vitro ADME; conditions: for half-life at 5 μM: human liver microsomes 0.5 mg protein/mL, compound 5 μM, NADPH 1.0 mM, pH 7.4, 37° C., read-out: Human T1/2; for CLint scaled at 5 μM: liver microsomes, pH 7.4, in vivo CLint extrapolated from human liver microsome incubation
Description: (§1) Human or rat liver microsomes incubations were conducted in duplicate in polypropylene tubes. The typical incubation mixtures consisted of human or rat liver microsomes (0.5 mg protein/mL), compounds of interest (5 μM) and NADPH (1.0 mM) in a total volume of 200 μL potassium phosphate buffer (PBS, 100 mM, pH 7.4). Compounds were dissolved in DMSO and diluted with PBS such that the final concentration of DMSO was 0.05%. The enzymatic reactions were commenced with the addition of protein after a 3-min preincubation and incubated in a water bath open to the air at 37° C. Reactions were terminated at various time points (0, 5, 10, 15, 30, 60 min) by adding equal volume of ice-cold acetonitrile. The samples were stored at −80° C. until LC/MS/MS assays.
(§2) The concentrations of compounds in the incubation mixtures of human or rat liver microsomes were determined by a LC/MS/MS method. The ranges of the linearity in the concentration range were determined for each tested compounds.
(§3) A parallel incubation was performed using denatured microsomes as the negative control, and reactions were terminated at various time points (0, 15, 60 min) after incubation at 37° C.
(§4) Dextromethorphan (70 μM) was selected as the positive control, and reactions were terminated at various time points (0, 5, 10, 15, 30, 60 min) after incubation at 37° C. Both positive and negative control samples were included in each assay to ensure the integrity of the microsomal incubation system.
(§5) The concentrations of compounds in human or rat liver microsome incubations were plotted as a percentage of the relevant zero time point control for each reaction. The in vivo CLint were extrapolated (ref.: Naritomi, Y.; Terashita, S.; Kimura, S.; Suzuki, A.; Kagayama, A.; and Sugiyama, Y.; Prediction of human hepatic clearance from in vivo animal experiments and in vitro metabolic studies with liver microsomes from animals and humans. Drug Metab. Dispos., 2001, 29: 1316-1324).

[2] = Compound stability in rat liver microsomes; type: in vitro ADME; conditions: for CLint scaled at 5 μM: liver microsomes, pH 7.4, in vivo CLint extrapolated from rat liver microsome incubation; for half-life at 5 μM: rat liver microsomes 0.5 mg protein/mL, compound 5 μM, NADPH 1.0 mM, pH 7.4, 37° C., read-out: Rat T1/2
Description: as §1, §2, §3, §4, §5

[3] = Pharmacokinetics after intravenous and oral administration in rats; type: in vivo; conditions: for CL/F / bioavailability: Rats; for CL/F: iv dosing, dose 1 mg/kg (0.5 for Ex. 1, 10, 11, 35; 0.48 for Ex. 24); for AUC(0-t) / half-life / Vd / bioavailability: rat, plasma; for AUC(0-t) / half-life / Vd: iv, 1 mg/kg; for Vd: read-out: Vss; for bioavailability: oral (p.o.) generally 5 or 10 mg/kg versus iv dosing
Description: The LC/MS/MS system used in the analysis consists of an Agilent 1200 Series vacuum degasser, binary pump, well-plate autosampler, thermostatted column compartment, the Agilent G6430 Triple Quadrupole Mass Spectrometer with an electrosprayionization (ESI) source. Quantitative analysis was carried out using MRM mode. The parameters for MRM transitions are in the Table A.
An Agilent XDB-C18, 2.1×30 mm, 3.5 M column was used for the analysis. 5 L of the samples were injected. Analysis condition: The mobile phase was 0.1% formic acid in water (A) and 0.1% formic acid in methanol (B). The flow rate was 0.4 mL/min. And the gradient of Mobile phase was in the Table B.
Alternatively, an Agilent 6330 series LC/MS/MS spectrometer equipped with G1312A binary pumps, a G1367A autosampler and a G1314C UV detector were used in the analysis. An ESI source was used on the LC/MS/MS spectrometer. The analysis was done in positive ion mode as appropriate and the MRM transition for each analyte was optimized using standard solution. A Capcell MP-C18 100×4.6 mm I.D., […] column (Phenomenex, Torrance, Calif., USA) was used during the analysis. The mobile phase was 5 mM ammonia acetate, 0.1% MeOH in water (A): 5 mM ammonia acetate, 0.1% MeOH in acetonitrile (B) (70:30, v/v). The flow rate was 0.6 mL/min. Column was maintained at ambient temperature. 20 μL of the samples were injected.
The compounds disclosed herein are assessed in pharmacokinetic studies in mice, rats, dogs or monkeys. The compounds are administered as a water solution, 2% HPMC+1% TWEEN®80 in water solution, 5% DMSO+5% solutol in saline, 4% MC suspension or capsule. For the intravenous administration, the animals are generally given at 1 or 2 mg/kg dose. For the oral (p.o.) dosing, mice and rats are generally given 5 or 10 mg/kg dose, and dogs and monkeys are generally given 10 mg/kg dose. The blood samples (0.3 mL) are drawn at 0.25, 0.5, 1.0, 2.0, 3.0, 4.0, 6.0, 8.0, 12 and 24 h time points or 0.083, 0.25, 0.5, 1.0, 2.0, 4.0, 6.0, 8.0 and 24 h time points and centrifuged at 3,000 or 4000 rpm for 2 to 10 min. The plasma solutions are collected, stored at −20° C. or −70° C. until analyzed by LC/MS/MS as described above.

PI3K (p110δ/p85α) (h) = target: T1, PI3K (p110δ/p85α) (h) (Homo sapiens, UniProt O00329); test: PI3K (p110δ/p85α) (h) non-radioactive HTRF kinase assay; type: biochemical; conditions: Kinase inhibition data; performed at Millipore UK Ltd
T1 construct: purchased Millipore UK Ltd
T1 sequence (O00329 whole entry): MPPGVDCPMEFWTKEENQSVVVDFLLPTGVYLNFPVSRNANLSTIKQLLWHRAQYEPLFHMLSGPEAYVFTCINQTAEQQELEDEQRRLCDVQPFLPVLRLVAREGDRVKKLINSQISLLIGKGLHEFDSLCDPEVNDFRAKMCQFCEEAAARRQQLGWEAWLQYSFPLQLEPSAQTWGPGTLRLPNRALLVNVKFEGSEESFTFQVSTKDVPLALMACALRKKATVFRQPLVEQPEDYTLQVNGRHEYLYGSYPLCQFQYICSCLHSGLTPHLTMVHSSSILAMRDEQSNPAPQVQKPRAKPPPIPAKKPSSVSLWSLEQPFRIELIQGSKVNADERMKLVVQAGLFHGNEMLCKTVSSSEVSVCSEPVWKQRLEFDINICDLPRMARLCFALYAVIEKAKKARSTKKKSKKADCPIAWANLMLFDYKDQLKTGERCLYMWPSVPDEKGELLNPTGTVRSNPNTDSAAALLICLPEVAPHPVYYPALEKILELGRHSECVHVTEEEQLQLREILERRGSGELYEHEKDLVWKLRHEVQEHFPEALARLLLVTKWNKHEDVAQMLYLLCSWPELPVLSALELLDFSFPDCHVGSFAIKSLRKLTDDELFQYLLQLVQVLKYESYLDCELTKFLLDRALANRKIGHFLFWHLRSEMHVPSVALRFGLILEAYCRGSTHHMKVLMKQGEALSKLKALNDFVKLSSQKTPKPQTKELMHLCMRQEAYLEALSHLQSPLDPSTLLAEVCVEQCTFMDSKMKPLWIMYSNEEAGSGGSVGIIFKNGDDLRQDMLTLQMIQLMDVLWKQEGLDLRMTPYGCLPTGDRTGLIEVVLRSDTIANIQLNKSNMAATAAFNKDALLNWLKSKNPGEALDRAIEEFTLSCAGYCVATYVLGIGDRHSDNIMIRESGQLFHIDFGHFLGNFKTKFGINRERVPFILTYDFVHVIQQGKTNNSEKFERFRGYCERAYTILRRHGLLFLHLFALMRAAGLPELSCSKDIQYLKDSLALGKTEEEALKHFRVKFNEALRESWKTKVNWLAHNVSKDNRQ
T1 sequence (P27986 whole entry partner): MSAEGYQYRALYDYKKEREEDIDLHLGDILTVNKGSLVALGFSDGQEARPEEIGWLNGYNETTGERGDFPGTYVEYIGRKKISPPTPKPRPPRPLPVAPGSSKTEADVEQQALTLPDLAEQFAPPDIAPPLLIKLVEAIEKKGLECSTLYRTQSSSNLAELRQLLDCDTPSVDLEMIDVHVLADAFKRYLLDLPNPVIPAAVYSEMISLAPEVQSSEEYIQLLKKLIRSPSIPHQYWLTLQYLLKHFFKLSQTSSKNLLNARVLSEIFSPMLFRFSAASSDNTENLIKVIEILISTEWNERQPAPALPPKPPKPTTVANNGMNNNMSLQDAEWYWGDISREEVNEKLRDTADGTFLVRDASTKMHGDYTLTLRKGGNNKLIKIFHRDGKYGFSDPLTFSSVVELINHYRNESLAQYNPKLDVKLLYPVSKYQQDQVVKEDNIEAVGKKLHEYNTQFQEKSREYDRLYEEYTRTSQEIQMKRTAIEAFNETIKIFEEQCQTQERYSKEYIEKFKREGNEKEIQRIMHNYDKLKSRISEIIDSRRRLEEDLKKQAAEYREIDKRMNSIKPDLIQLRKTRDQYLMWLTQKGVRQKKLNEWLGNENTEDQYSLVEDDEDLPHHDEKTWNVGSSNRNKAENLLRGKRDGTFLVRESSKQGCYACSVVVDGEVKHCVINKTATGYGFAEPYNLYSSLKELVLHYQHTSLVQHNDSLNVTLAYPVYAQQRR
Description: (§6) The above assay procedure can be used to determine the IC50 for inhibition and/or the inhibition constant, Ki.
PI3K (p110δ/p85α) (h) [Non-Radioactive Assay]
(§7) PI3K (p110δ/p85α) (h) is incubated in assay buffer containing 10 μM phosphatidylinositol-4, 5-bisphosphate and MgATP (concentration as required). The reaction is initiated by the addition of the MgATP mix. After incubation for 30 minutes at room temperature, the reaction is stopped by the addition of stop solution containing EDTA and biotinylated phosphatidylinositol-3,4,5-trisphosphate. Finally, detection buffer is added, which contains europium-labelled anti-GST monoclonal antibody, GST-tagged GRP1 PH domain and streptavidin-allophycocyanin. The plate is then read in timeresolved fluorescence mode and the homogenous time-resolved fluorescence (HTRF) signal is determined according to the formula HTRF=10000×(Em665 nm/Em620 nm).
(§8) The kinase assays described herein were performed at Millipore UK Ltd, Dundee Technology Park, Dundee DD2 1SW, UK.

PI3K (p120γ) (h) = target: T2, PI3K (p120γ) (h) (Homo sapiens, UniProt P48736); test: PI3K (p120γ) (h) non-radioactive HTRF kinase assay; type: biochemical; conditions: Kinase inhibition data; performed at Millipore UK Ltd
T2 construct: purchased Millipore UK Ltd
T2 sequence (P48736 whole entry): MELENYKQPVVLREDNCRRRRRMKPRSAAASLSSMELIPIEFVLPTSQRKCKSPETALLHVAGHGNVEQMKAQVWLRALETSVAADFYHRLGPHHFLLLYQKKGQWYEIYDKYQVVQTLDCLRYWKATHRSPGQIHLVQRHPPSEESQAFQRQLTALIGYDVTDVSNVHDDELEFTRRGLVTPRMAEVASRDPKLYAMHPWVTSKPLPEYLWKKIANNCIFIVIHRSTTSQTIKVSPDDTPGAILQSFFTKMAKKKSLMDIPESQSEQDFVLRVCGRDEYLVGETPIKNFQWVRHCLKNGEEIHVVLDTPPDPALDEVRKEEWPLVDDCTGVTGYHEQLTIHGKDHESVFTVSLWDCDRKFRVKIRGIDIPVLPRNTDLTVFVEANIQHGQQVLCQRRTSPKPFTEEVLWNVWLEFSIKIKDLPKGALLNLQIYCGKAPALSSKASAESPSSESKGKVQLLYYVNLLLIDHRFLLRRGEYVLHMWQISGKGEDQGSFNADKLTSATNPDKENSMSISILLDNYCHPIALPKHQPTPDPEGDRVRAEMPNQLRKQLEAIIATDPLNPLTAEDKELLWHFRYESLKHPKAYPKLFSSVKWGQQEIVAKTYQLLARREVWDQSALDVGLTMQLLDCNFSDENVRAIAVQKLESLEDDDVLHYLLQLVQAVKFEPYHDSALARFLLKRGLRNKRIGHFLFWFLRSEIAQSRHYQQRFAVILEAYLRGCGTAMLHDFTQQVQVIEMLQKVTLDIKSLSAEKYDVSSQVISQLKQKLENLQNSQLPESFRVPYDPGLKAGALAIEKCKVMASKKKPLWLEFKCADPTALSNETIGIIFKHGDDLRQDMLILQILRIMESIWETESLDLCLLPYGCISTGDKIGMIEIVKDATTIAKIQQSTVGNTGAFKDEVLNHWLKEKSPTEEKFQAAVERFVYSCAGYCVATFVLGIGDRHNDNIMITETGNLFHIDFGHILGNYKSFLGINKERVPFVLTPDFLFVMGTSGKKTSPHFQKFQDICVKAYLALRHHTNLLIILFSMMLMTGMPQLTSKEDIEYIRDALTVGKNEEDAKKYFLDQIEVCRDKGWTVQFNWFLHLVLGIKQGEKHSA
Description: as §6
PI3K (p120γ) (h) [Non-Radioactive Assay]
as §7, with “(p120γ)” for “(p110δ/p85α)”, “M” for “μM”
as §8

PI3K (h) p110β/p85α = target: T3, PI3K (h) p110β/p85α (Homo sapiens, UniProt P42338); test: PI3K (p110β/p85α) (h) non-radioactive HTRF kinase assay; type: biochemical; conditions: Kinase inhibition data; performed at Millipore UK Ltd
T3 construct: purchased Millipore UK Ltd
T3 sequence (P42338 whole entry): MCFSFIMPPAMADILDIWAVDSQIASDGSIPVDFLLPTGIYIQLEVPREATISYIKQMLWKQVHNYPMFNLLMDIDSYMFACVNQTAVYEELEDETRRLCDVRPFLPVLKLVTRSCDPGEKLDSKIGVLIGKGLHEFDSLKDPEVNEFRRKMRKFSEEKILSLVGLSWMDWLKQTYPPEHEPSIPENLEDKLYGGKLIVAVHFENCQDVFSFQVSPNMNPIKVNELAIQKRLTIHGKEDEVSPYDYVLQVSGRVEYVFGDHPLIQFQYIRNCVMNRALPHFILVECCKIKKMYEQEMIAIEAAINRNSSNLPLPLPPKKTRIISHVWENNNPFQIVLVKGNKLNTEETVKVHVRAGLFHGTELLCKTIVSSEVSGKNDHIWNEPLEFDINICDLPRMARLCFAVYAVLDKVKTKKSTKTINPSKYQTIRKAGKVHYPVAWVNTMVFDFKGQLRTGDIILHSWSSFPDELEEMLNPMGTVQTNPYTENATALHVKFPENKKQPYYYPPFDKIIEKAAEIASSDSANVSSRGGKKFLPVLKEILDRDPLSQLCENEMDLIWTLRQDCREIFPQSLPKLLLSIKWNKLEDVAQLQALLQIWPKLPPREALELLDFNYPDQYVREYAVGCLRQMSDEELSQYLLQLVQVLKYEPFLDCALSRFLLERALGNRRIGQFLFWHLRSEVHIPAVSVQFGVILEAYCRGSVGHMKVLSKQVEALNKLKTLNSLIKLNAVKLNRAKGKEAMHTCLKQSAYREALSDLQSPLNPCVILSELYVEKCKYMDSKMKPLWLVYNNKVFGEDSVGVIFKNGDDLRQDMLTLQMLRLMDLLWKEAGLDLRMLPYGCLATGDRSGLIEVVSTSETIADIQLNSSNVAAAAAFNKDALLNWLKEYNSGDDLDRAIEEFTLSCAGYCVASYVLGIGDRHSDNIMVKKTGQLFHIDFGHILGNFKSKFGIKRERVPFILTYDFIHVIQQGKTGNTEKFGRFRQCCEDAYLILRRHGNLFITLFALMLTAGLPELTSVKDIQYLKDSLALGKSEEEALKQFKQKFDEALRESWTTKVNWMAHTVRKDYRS
T3 sequence (P27986 whole entry partner): as the sequence (P27986 whole entry partner) above

PI3K (p110α/p85α) (h) = target: T4, PI3K (p110α/p85α) (h) (Homo sapiens, UniProt P42336); test: PI3K (p110α/p85α) (h) non-radioactive HTRF kinase assay; type: biochemical; conditions: Kinase inhibition data; performed at Millipore UK Ltd
T4 construct: purchased Millipore UK Ltd
T4 sequence (P42336 whole entry): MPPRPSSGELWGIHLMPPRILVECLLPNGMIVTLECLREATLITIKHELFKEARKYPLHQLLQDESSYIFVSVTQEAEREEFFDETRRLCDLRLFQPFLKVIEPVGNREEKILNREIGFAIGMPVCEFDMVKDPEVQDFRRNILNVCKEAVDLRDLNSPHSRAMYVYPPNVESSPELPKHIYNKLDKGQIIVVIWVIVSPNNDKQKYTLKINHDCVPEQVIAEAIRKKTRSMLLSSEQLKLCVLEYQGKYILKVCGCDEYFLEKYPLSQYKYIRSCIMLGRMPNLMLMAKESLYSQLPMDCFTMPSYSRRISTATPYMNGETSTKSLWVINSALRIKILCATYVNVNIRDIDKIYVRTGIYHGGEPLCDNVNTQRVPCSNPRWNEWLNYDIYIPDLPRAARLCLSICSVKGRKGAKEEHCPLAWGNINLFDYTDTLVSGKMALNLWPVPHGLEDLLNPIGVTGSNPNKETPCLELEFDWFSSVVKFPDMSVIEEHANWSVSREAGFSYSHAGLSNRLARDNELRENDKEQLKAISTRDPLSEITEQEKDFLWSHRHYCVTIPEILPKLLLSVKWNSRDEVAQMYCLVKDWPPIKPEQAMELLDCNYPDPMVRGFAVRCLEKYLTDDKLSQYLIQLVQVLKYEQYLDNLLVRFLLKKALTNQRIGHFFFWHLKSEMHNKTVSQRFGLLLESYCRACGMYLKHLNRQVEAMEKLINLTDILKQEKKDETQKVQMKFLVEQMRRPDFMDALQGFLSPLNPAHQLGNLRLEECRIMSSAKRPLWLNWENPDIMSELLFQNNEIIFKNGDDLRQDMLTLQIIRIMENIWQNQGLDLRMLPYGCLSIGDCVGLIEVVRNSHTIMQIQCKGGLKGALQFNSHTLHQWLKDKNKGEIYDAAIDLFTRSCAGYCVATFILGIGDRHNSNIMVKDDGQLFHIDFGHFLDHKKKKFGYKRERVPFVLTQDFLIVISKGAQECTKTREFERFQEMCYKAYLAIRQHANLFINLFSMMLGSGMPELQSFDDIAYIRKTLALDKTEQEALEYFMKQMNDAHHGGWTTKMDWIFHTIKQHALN
T4 sequence (P27986 whole entry partner): as the sequence (P27986 whole entry partner) above
Description: as §6
PI3K (p110α/p85α) (h) [Non-Radioactive Assay]
as §7, with “(p110α/p85α)” for “(p110δ/p85α)”, “phosphatidylinositol 4,5-bisphosphate” for “phosphatidylinositol-4, 5-bisphosphate”, “ATP solution.” for “MgATP mix.”, “streptavidin allophycocyanin.” for “streptavidin-allophycocyanin.”
as §8

Row | Structure (SMILES) | half-life at 5 μM [1] | CLint scaled at 5 μM [1] | CLint scaled at 5 μM [2] | half-life at 5 μM [2] | CL/F [3] | AUC(0-t) [3] | half-life [3] | Vd [3] | bioavailability [3] | pIC50 (PI3K (p110δ/p85α) (h)) | pIC50 (PI3K (p120γ) (h)) | pIC50 (PI3K (h) p110β/p85α) | pIC50 (PI3K (p110α/p85α) (h))
1 | C[C@H](Nc1ncnc(N)c1-c1nnn(C)n1)c1nc2cccc(-c3cnn(C)c3)c2c(=O)n1-c1ccccc1 [Ex. 76, (S)-2-(1-((6-amino-5-(2-methyl-2H-tetrazol-5-yl)pyrimidin-4-yl)amino)ethyl)-5-(1-methyl-1H-pyrazol-4-yl)-3-phenylquinazolin-4(3H)-one] | 4.49 h | 6.46 mL/min/kg | 8.61 mL/min/kg | 4.81 h | 6.5 mL/min/kg | 2510 ng·h/mL | 1.45 h | 0.77 L/kg | 105% | – | – | – | –
2 | CC[C@H](Nc1ncnc(N)c1-c1nc(C)no1)c1nc2cccc(-c3cnn(C)c3)c2c(=O)n1C1CC1 [Ex. 71, (S)-2-(1-((6-amino-5-(3-methyl-1,2,4-oxadiazol-5-yl)pyrimidin-4-yl)amino)propyl)-3-cyclopropyl-5-(1-methyl-1H-pyrazol-4-yl)quinazolin-4(3H)-one] | – | – | – | – | 64 mL/min/kg | 256 ng·h/mL | 1.07 h | 4.9 L/kg | 85.5% | 7.80 | 6.32 | 6.12 | 5.88
3 | Cc1nnc(-c2c(N)ncnc2N[C@@H](C)c2nc3cccc(Cl)c3c(=O)n2C2CC2)o1 [Ex. 70, (S)-2-(1-((6-amino-5-(5-methyl-1,3,4-oxadiazol-2-yl)pyrimidin-4-yl)amino)ethyl)-5-chloro-3-cyclopropylquinazolin-4(3H)-one] | 1.1 h | 26.3 mL/min/kg | 37.8 mL/min/kg | 1.1 h | 44 mL/min/kg | 399 ng·h/mL | 0.85 h | 3.3 L/kg | 96.4% | 7.30 | – | – | –
4 | Cc1nnc(-c2c(N)ncnc2N[C@@H](C)c2nc3cccc(-c4cnn(C)c4)c3c(=O)n2C2CC2)o1 [Ex. 67, (S)-2-(1-((6-amino-5-(5-methyl-1,3,4-oxadiazol-2-yl)pyrimidin-4-yl)amino)ethyl)-3-cyclopropyl-5-(1-methyl-1H-pyrazol-4-yl)quinazolin-4(3H)-one] | 1.58 h | 18.3 mL/min/kg | 10.1 mL/min/kg | 4.08 h | 23.2 mL/min/kg | 777 ng·h/mL | 1.14 h | 1.86 L/kg | 71.7% | 7.33 | – | – | –

Continued, values first:

Row | half-life at 5 μM [1] | CLint scaled at 5 μM [1] | CLint scaled at 5 μM [2] | half-life at 5 μM [2] | CL/F [3] | AUC(0-t) [3] | half-life [3] | Vd [3] | bioavailability [3] | pIC50 (PI3K (p110δ/p85α) (h)) | pIC50 (PI3K (p120γ) (h)) | pIC50 (PI3K (h) p110β/p85α) | pIC50 (PI3K (p110α/p85α) (h)) | Structure (SMILES)
5 | 1 h | 28.9 mL/min/kg | 38.3 mL/min/kg | 1.08 h | 20.8 mL/min/kg | 783 ng·h/mL | 1.27 h | 2.18 L/kg | 67.7% | – | – | – | – | CC[C@H](Nc1ncnc(N)c1-c1nnn(C)n1)c1nc2cccc(-c3cnn(C)c3)c2c(=O)n1C1CC1 [Ex. 78, (S)-2-(1-((6-amino-5-(2-methyl-2H-tetrazol-5-yl)pyrimidin-4-yl)amino)propyl)-3-cyclopropyl-5-(1-methyl-1H-pyrazol-4-yl)quinazolin-4(3H)-one]
6 | 1.07 h | 27 mL/min/kg | 37.7 mL/min/kg | 1.1 h | – | – | – | – | – | – | – | – | – | Cc1nc(-c2c(N)ncnc2N[C@@H](C)c2nc3cccc(-c4cnn(C)c4)c3c(=O)n2C2CC2)no1 [Ex. 80, (S)-2-(1-((6-amino-5-(5-methyl-1,2,4-oxadiazol-3-yl)pyrimidin-4-yl)amino)ethyl)-3-cyclopropyl-5-(1-methyl-1H-pyrazol-4-yl)quinazolin-4(3H)-one]
7 | 0.821 h | 35.3 mL/min/kg | 17.3 mL/min/kg | 2.4 h | 32.2 mL/min/kg | 511 ng·h/mL | 1.36 h | 4.25 L/kg | 78.7% | – | – | – | – | CC[C@H](Nc1ncnc(N)c1-c1noc(C)n1)c1nc2cccc(-c3cnn(C)c3)c2c(=O)n1C1CC1 [Ex. 79, (S)-2-(1-((6-amino-5-(5-methyl-1,2,4-oxadiazol-3-yl)pyrimidin-4-yl)amino)propyl)-3-cyclopropyl-5-(1-methyl-1H-pyrazol-4-yl)quinazolin-4(3H)-one]
8 | 1.36 h | 21.3 mL/min/kg | 21.2 mL/min/kg | 1.95 h | 5.33 mL/min/kg | 2920 ng·h/mL | 1.76 h | 0.78 L/kg | 109% | – | – | – | – | Cc1nc(-c2c(N)ncnc2N[C@@H](C)c2nc3cccc(-c4cnn(C)c4)c3c(=O)n2-c2ccccc2)no1 [Ex. 77, (S)-2-(1-((6-amino-5-(5-methyl-1,2,4-oxadiazol-3-yl)pyrimidin-4-yl)amino)ethyl)-5-(1-methyl-1H-pyrazol-4-yl)-3-phenylquinazolin-4(3H)-one]
